# Test results: the supplement of paper PMC10307832
# What was measured:
# Test in all cases: relative viability (nuclei count vs DMSO), 5 days (fraction); higher = more cells survive
# Tanzisertib + Alpelisib = compound: O[C@H]1CC[C@H](Nc2ncc3nc(Nc4c(F)cc(F)cc4F)n([C@H]4CCOC4)c3n2)CC1 [Tanzisertib] + Cc1nc(NC(=O)N2CCC[C@H]2C(N)=O)sc1-c1ccnc(C(C)(C)C(F)(F)F)c1 [Alpelisib] (partner 2 µM)
# Procedure, shortened: (§1)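 Cells from lung cancer lines were seeded into 1536-well plates and, one day later, dosed by pin tool. Treatments were either a single drug or a fixed dose of an anchor drug with five library-drug doses (not always all listed) in √10 steps. After 5 days, nuclei were stained in a one-step fixation (final 0.05% Triton X-100, 1% formaldehyde, 1 ug/ml Hoechst) and counted on 4× images, and relative viability is the treated-to-vehicle nuclei ratio, as the median of duplicate plates.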
# Tanzisertib + Crizotinib = compound: O[C@H]1CC[C@H](Nc2ncc3nc(Nc4c(F)cc(F)cc4F)n([C@H]4CCOC4)c3n2)CC1 [Tanzisertib] + C[C@@H](Oc1cc(-c2cnn(C3CCNCC3)c2)cnc1N)c1c(Cl)ccc(F)c1Cl [Crizotinib] (partner 1 µM)
# Procedure, shortened: as §1
# Tanzisertib + Foretinib = compound: O[C@H]1CC[C@H](Nc2ncc3nc(Nc4c(F)cc(F)cc4F)n([C@H]4CCOC4)c3n2)CC1 [Tanzisertib] + COc1cc2c(Oc3ccc(NC(=O)C4(C(=O)Nc5ccc(F)cc5)CC4)cc3F)ccnc2cc1OCCCN1CCOCC1 [Foretinib] (partner 0.25 µM)
# Procedure, shortened: as §1
# Tanzisertib + OSI-027 = compound: O[C@H]1CC[C@H](Nc2ncc3nc(Nc4c(F)cc(F)cc4F)n([C@H]4CCOC4)c3n2)CC1 [Tanzisertib] + COc1cccc2cc(-c3nc([C@H]4CC[C@H](C(=O)O)CC4)n4ncnc(N)c34)[nH]c12 [OSI-027] (partner 0.5 µM)
# Procedure, shortened: as §1
Cell Line,relative viability (Tanzisertib + Alpelisib; first compound 0.08 µM),relative viability (Tanzisertib + Alpelisib; first compound 0.253 µM),relative viability (Tanzisertib + Alpelisib; first compound 0.8 µM),relative viability (Tanzisertib + Alpelisib; first compound 2.53 µM),relative viability (Tanzisertib + Alpelisib; first compound 8 µM),relative viability (Tanzisertib + Crizotinib; first compound 0.08 µM),relative viability (Tanzisertib + Crizotinib; first compound 0.253 µM),relative viability (Tanzisertib + Crizotinib; first compound 0.8 µM),relative viability (Tanzisertib + Crizotinib; first compound 2.53 µM),relative viability (Tanzisertib + Crizotinib; first compound 8 µM),relative viability (Tanzisertib + Foretinib; first compound 0.08 µM),relative viability (Tanzisertib + Foretinib; first compound 0.253 µM),relative viability (Tanzisertib + Foretinib; first compound 0.8 µM),relative viability (Tanzisertib + Foretinib; first compound 2.53 µM),relative viability (Tanzisertib + Foretinib; first compound 8 µM),relative viability (Tanzisertib + OSI-027; first compound 0.08 µM),relative viability (Tanzisertib + OSI-027; first compound 0.253 µM),relative viability (Tanzisertib + OSI-027; first compound 0.8 µM),relative viability (Tanzisertib + OSI-027; first compound 2.53 µM),relative viability (Tanzisertib + OSI-027; first compound 8 µM)
NCI-H2009,1.24,1.2,1.14,1.19,1.17,1.04,1.13,1.02,1.12,1.06,1.21,1.19,1.24,1.27,1.03,0.776,0.668,0.594,0.73,0.705
NCI-H2023,0.671,0.577,0.627,0.584,0.545,0.568,0.651,0.684,0.607,0.567,0.853,0.874,0.936,0.901,0.646,0.483,0.418,0.394,0.347,0.35
NCI-H2085,0.997,0.96,0.966,0.948,1.01,0.875,0.805,0.819,0.889,0.93,0.893,1.11,1.14,1.03,1.05,0.937,0.666,0.804,0.705,0.515
NCI-H2087,1.27,1.22,1.24,1.11,1.32,0.717,0.918,0.889,0.899,1.06,1.23,0.992,1.12,1.06,1.09,0.564,0.578,0.712,0.521,0.338
NCI-H2126,0.775,0.749,0.749,0.725,0.736,1.09,1.01,1.03,0.985,1.03,1.24,1.21,1.15,1.19,1.12,0.8,0.723,0.742,0.614,0.548
NCI-H2170,0.98,0.787,0.796,0.779,0.809,1.42,1.18,1.16,1.09,1.02,1.02,1.01,0.954,1.06,0.984,0.765,0.771,0.729,0.735,0.588
NCI-H2228,0.934,0.67,0.806,0.737,0.539,0.53,0.458,0.475,0.465,0.351,0.961,0.869,0.928,0.733,0.68,0.822,0.633,0.616,0.499,0.379
NCI-H2347,1.17,1.04,1.1,1.16,1.11,0.675,0.765,0.739,0.945,0.827,1.12,0.792,0.95,1.25,0.629,0.447,–,0.46,0.42,0.407
